Measurements published in patent US6916849B2, “Compositions for improving lipid content in the blood” (priority 2000, dated 2005).
Values belong to the compound of their own block, whether it stands above or below them.

Experiments:
[1] = test system: total cholesterol in the serum; experiment: Evaluation of serum lipid level: total cholesterol in serum of beagle dogs after oral administration for 11 days (CEH-COD-POD method); settings: oral capsule once daily, pravastatin 2 mg/kg, mean of 5 dogs
From the text: (§1) Pravastatin with a purity of 99.4%, manufactured at Sankyo Co. Ltd., was employed in the study.
(§2) Male beagle dogs were purchased at 5 months old from Covance Research Products Inc., as the test animals, and were used after quarantine and acclimatization periods of approximately 1 month.
(§3) The required amounts of pravastatin or each combination drug as calculated based on the body weight of each animal were placed in a gelatin capsule (½-ounce volume) purchased from TORPAC Co. Capsules filled with pravastatin were stored in a cold room and with combination drugs at room temperature until use.
(§4) Combination drugs were put in identical geltin capsules.
(§5) Capsules filled with pravastatin or combination drugs were orally administered once daily between 9:00 and 12:30 to the test animals. All test animals were fasted 2-3 hr prior to administration. The administration period was 11 successive days.
(§6) Approximately 10 ml of blood were collected from the cephalic vein on 14 and 7 days before administration (2 and one week before the drug administration) and 4, 8, and 12 days after administration of the capsules. The animals were fasted for approximate 18 hr prior to blood collection. Collected blood was placed into test tubes and left for 0.5-1 hr at room temperature. The test tubes were then centrifuged at 3,000 rpm for 10 min to isolate serum. Levels of total cholesterol and ALP in the serum were determined by the CEH-COD-POD and Bessey-Lowry methods, respectively.
(§7) For quantitative analyses, an automatic analyzer, Monarch (Instrumentation Laboratory), was used.
(§8) Each value represents the mean value calculated from 5 animals.

[2] = test system: ALP in the serum; settings: oral capsule once daily, pravastatin 2 mg/kg, riboflavin acetate 6 mg/kg, relative to pre-administration average (100), mean of 5 dogs
From the text: as §1, §2, §3, §4, §5, §6, §7, §8

[3] = d-α-tocopherol acetate 10 mg/kg, ascorbic acid 50 mg/kg, relative to pre-administration average (100)
[4] = d-α-tocopherol acetate 10 mg/kg, relative to pre-administration average (100)
[5] = ascorbic acid 50 mg/kg, relative to pre-administration average (100)
[6] = riboflavin acetate 6 mg/kg, relative to pre-administration average (100)

Compound: CC(=O)Oc1c(C)c(C)c2c(c1C)CC[C@@](C)(CCC[C@H](C)CCC[C@H](C)CCCC(C)C)O2 [d-α-tocopherol acetate]
Total Cholesterol Level in Serum After Administration, 4 days [1, 3]: 97.8
Total Cholesterol Level in Serum After Administration, 4 days [1, 4]: 96.3
Total Cholesterol Level in Serum After Administration, 8 days [1, 3]: 96.4
Total Cholesterol Level in Serum After Administration, 8 days [1, 4]: 92.8
Total Cholesterol Level in Serum After Administration, 12 days [1, 3]: 96.1
Total Cholesterol Level in Serum After Administration, 12 days [1, 4]: 95.9

Compound: O=C1O[C@H]([C@@H](O)CO)C(O)=C1O [Ascorbic acid, ascorbic acid]
Total Cholesterol Level in Serum After Administration, 4 days [1, 5]: 98.7
Total Cholesterol Level in Serum After Administration, 8 days [1, 5]: 98.2
Total Cholesterol Level in Serum After Administration, 12 days [1, 5]: 103.4

ALP level (after administration), 4 days ([2]; 4 days): 98.1
ALP level (after administration), 8 days ([2]; 8 days): 98.8
ALP level (after administration), 12 days ([2]; 12 days): 93.9
Compound: Riboflavin acetate
Total Cholesterol Level in Serum After Administration, 4 days ([1]; riboflavin acetate 6 mg/kg, relative to average level 2 and 1 week before administration (100)): 103.9
Total Cholesterol Level in Serum After Administration, 8 days [1, 6]: 101.6
Total Cholesterol Level in Serum After Administration, 12 days [1, 6]: 100.5
